From US3959351A, “Haloalkylbenzoyl esters of di-lower alkylamino alkanols and quaternary lower alkyl salts thereof” (priority 1972, dated 1976)

Molecular target: electric eel cholinesterase (Type V) (Electrophorus electricus, UniProt O42275)
Assay: Inhibition of electric eel cholinesterase (Type V) by substituted benzoyl cholines (method of Rappaport et al.)
Format: biochemical
Conditions: incubated with enzyme at room temperature (22°) for 40 minutes
Experimental: As stated heretofore, the compounds of the present invention when tested for inhibition of eel cholinesterase show good activity at rather low concentrations. Inhibition of cholinesterase activity of generally recognized as having positive correlation which insecticidal activity.
INHIBITION OF ELECTRIC EEL CHOLINESTERASE (TYPE V)
BY SUBSTITUTED BENZOYL CHOLINES
Activity Measurement Method:
*Reagent incubated with enzyme at room temperature (22°) for 40

[1] = 40 min, Bromomethyl- reagent type, concentration 10^-^4 M
[2] = Bromomethyl- reagent type, concentration 10^-^6 M
[3] = 40 min, Formyl- reagent type, concentration 10^-^4 M
[4] = Formyl- reagent type, concentration 10^-^3 M
[5] = Bromomethyl- reagent type, concentration 10^-^4 M
[6] = Formyl- reagent type, concentration 10^-^4 M

Chain of electric eel cholinesterase (Type V) (O42275 24-633): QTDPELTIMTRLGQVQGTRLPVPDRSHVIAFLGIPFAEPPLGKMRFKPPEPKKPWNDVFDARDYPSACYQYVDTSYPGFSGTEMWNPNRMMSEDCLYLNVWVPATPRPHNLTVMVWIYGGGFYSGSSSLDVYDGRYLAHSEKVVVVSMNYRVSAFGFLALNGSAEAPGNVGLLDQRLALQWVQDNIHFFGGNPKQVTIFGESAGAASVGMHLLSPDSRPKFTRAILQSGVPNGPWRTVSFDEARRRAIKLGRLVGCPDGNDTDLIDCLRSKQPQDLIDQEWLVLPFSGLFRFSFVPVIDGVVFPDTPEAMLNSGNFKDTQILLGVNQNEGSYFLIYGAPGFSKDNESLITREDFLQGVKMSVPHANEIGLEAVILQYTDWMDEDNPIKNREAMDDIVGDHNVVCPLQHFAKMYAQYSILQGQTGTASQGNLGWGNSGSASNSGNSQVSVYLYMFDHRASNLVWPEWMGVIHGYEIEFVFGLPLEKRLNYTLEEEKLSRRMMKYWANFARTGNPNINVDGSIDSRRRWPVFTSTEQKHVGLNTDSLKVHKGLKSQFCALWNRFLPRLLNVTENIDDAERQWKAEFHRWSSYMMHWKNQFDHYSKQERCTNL

## C[N+](C)(C)CCOC(=O)c1cccc(CBr)c1CBr.[I-] [2,3 Bromomethyl-, 2,3-di(bromomethyl)benzoyl choline iodide]
[1]
  inhibition at 100 µM: 40%
[2]
  INHIBITION: None

## C[N+](C)(C)CCOC(=O)c1cccc(C=O)c1C=O.[I-] [2,3 Formyl-, 2,3-diformylbenzoyl choline iodide]
[3]
  inhibition at 100 µM: 50%
[4]
  INHIBITION: Complete

## C[N+](C)(C)CCOC(=O)c1ccc(CBr)cc1CBr.[I-] [2,4 Bromomethyl-, 2,4-di(bromomethyl)benzoyl choline iodide]
[5]
  INHIBITION: Complete
[2]
  INHIBITION: None

## C[N+](C)(C)CCOC(=O)c1ccc(C=O)cc1C=O.[I-] [2,4 Formyl-, 2,4-diformylbenzoyl choline iodide]
[3]
  inhibition at 100 µM: 50%
[4]
  INHIBITION: Complete

## C[N+](C)(C)CCOC(=O)c1cc(CBr)ccc1CBr.[I-] [2,5 Bromomethyl-, 2,5-di(bromomethyl)benzoyl choline iodide]
[1]
  inhibition at 100 µM: 80%
[2]
  INHIBITION: None

## C[N+](C)(C)CCOC(=O)c1cc(C=O)ccc1C=O.[I-] [2,5 Formyl-, 2,5-diformylbenzoyl choline iodide]
[3]
  inhibition at 100 µM: 50%
[4]
  INHIBITION: Complete

## C[N+](C)(C)CCOC(=O)c1ccc(CBr)c(CBr)c1 [3,4 Bromomethyl-, 3,4-di(bromomethyl)benzoyl choline iodide]
[1]
  inhibition at 100 µM: 90%
40 min, Bromomethyl- reagent type, concentration 10^-^6 M
  inhibition at 1 µM: 30%

## C[N+](C)(C)CCOC(=O)c1ccc(C=O)c(C=O)c1.[I-] [3,4 Formyl-, 3,4-diformylbenzoyl choline iodide]
[3]
  inhibition at 100 µM: 25%
[4]
  INHIBITION: Complete

## C[N+](C)(C)CCOC(=O)c1cc(CBr)cc(CBr)c1.[I-] [3,5 Bromomethyl-, 3,5-di(bromomethyl)benzoyl choline iodide]
[1]
  inhibition at 100 µM: 90%
[2]
  INHIBITION: None

## C[N+](C)(C)CCOC(=O)c1cc(C=O)cc(C=O)c1.[I-] [3,5 Formyl-, 3,5-diformylbenzoyl choline iodide]
[4]
  INHIBITION: Complete
[6]
  INHIBITION: Complete

## C[N+](C)(C)CCOC(=O)c1cccc(CBr)c1.[I-] [meta Bromomethyl-, m-bromomethyl benzoyl choline iodide]
[5]
  INHIBITION: None
[2]
  INHIBITION: None

## C[N+](C)(C)CCOC(=O)c1cccc(C=O)c1.[I-] [meta Formyl-, m-formylbenzoyl choline iodide]
40 min, Formyl- reagent type, concentration 10^-^3 M
  inhibition at 1000 µM: 60%
[6]
  INHIBITION: None

## C[N+](C)(C)CCOC(=O)c1ccccc1CBr.[I-] [ortho Bromomethyl-, o-bromomethyl benzoyl choline iodide]
[5]
  INHIBITION: None
[2]
  INHIBITION: None

## C[N+](C)(C)CCOC(=O)c1ccccc1C=O.[I-] [ortho Formyl-, o-formylbenzoyl choline iodide]
[4]
  INHIBITION: None
[6]
  INHIBITION: None

## C[N+](C)(C)CCOC(=O)c1ccc(CBr)cc1.[I-] [para Bromomethyl-, para-bromomethyl benzoyl choline iodide]
[5]
  INHIBITION: Complete
[2]
  INHIBITION: None

## C[N+](C)(C)CCOC(=O)c1ccc(C=O)cc1.[Br-] [para Formyl-, p-Formyl benzoyl choline bromide]
[4]
  INHIBITION: Complete
[6]
  INHIBITION: None
